This is an account of results in BindingDB's records for doi:10.1021/acsmedchemlett.8b00532 (Sapienza University of Rome, 2019).

The experiment is described as follows: Inhibition of NHERF1 in human SW620 cells expressing NHERF1 assessed as inhibition cell growth incubated for 72 hrs by MTT assay.

What is called IC50 is the concentration needed to halve the response being measured. Take `Cc1cc([N+](=O)[O-])ccc1NS(=O)(=O)c1cc(Cl)ccc1Cl`: the IC50 is 19 µM.
